Experimental findings from PubChem BioAssay (NCI) are described below.

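Exposure lasted 48 hours, with cells grown in 96-well plates and compounds tested at five concentrations. GI50 marks 50% less growth. TGI: total growth inhibition.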 Bounds are passed on as bounds.

Test systems include 786-0 renal; OVCAR-8 ovarian; A498 renal; NCI-H460 lung; EKVX NSCLC; A549 NSCLC; SK-MEL-28 melanoma; SF-295 CNS; RPMI-8226 leukemia; LOX IMVI melanoma.
Test in all cases: NCI-60 cell line screen, 48 h

Consider `Cc1cc(C)nc(SC2=C(Nc3cccc(Cl)c3)C(=O)N(Cc3ccccc3)C2=O)n1`, for which the GI50 in the test with 786-0 renal, in the test with OVCAR-8 ovarian, with A498 renal, in the test with NCI-H460 lung, in the test with EKVX NSCLC and with A549 NSCLC was more than 170 µM each time. The GI50 with SK-MEL-28 melanoma, in the test with SF-295 CNS, in the test on RPMI-8226 leukemia and with LOX IMVI melanoma was more than 170 µM throughout. Besides, the TGI in the test with 786-0 renal, in the test on OVCAR-8 ovarian, in the test on A498 renal, with NCI-H460 lung, in the test on EKVX NSCLC and in the test on A549 NSCLC was more than 170 µM throughout. Also, the TGI in the test with SK-MEL-28 melanoma, in the test with SF-295 CNS, in the test with RPMI-8226 leukemia and in the test with LOX IMVI melanoma was more than 170 µM each time.

Regarding `O=C(CC1(O)C(=O)Nc2c(Cl)cc(Cl)cc21)c1ccc2ccccc2c1` (centres undefined), the TGI came to 23.8 µM in the test on 786-0 renal; 26 µM in the test on OVCAR-8 ovarian; 24.8 µM with A498 renal; 18.1 µM in the test with NCI-H460 lung; 23.4 µM with EKVX NSCLC; 18.2 µM in the test on A549 NSCLC. Further, the TGI in the test on SK-MEL-28 melanoma is 24.3 µM; in the test on SF-295 CNS it was 21.3 µM; in the test with RPMI-8226 leukemia it was 29.8 µM; with LOX IMVI melanoma, 24.3 µM.

For `CCC[CH2][Sn]([CH2]CCC)([S]C1=NCCS1)[S]C1=NCCS1`, the GI50 in the test on 786-0 renal was 0.22 µM; with OVCAR-8 ovarian, 0.397 µM; with A498 renal, 0.507 µM; with NCI-H460 lung, 1.52 µM; in the test on EKVX NSCLC it was 1.34 µM; in the test on A549 NSCLC, 1.85 µM. The GI50 in the test with SK-MEL-28 melanoma was 0.146 µM; with SF-295 CNS it was 0.73 µM; in the test with RPMI-8226 leukemia it was 0.101 µM; in the test with LOX IMVI melanoma, 0.186 µM. For the same compound, the TGI with 786-0 renal stood at 0.663 µM; in the test on OVCAR-8 ovarian, 1.6 µM; with A498 renal it was 1.31 µM; in the test with NCI-H460 lung, 3.26 µM; in the test on EKVX NSCLC, 2.71 µM; in the test on A549 NSCLC, 3.55 µM. The TGI is 0.353 µM with SK-MEL-28 melanoma, 2.02 µM in the test with SF-295 CNS, 0.461 µM in the test on RPMI-8226 leukemia and 0.555 µM with LOX IMVI melanoma.

As for `ON(CCc1ccccn1)Cc1ccccc1`, the TGI with 786-0 renal, in the test with OVCAR-8 ovarian, with A498 renal, with NCI-H460 lung, in the test with EKVX NSCLC and in the test on A549 NSCLC was more than 100 µM each time. The TGI in the test on SK-MEL-28 melanoma, in the test on SF-295 CNS, with RPMI-8226 leukemia and with LOX IMVI melanoma was more than 100 µM throughout.

For `O=C1c2ccccc2C(=O)c2nc(-c3ccccc3)c(-c3ccccc3)nc21`, the TGI in the test on 786-0 renal was more than 100 µM; in the test with OVCAR-8 ovarian, more than 100 µM; in the test with A498 renal it was more than 93.6 µM; with NCI-H460 lung, more than 100 µM; in the test with EKVX NSCLC, more than 100 µM; in the test with A549 NSCLC, more than 84.2 µM. Further, the TGI with SK-MEL-28 melanoma is more than 100 µM; with SF-295 CNS, more than 100 µM; with RPMI-8226 leukemia, more than 100 µM; with LOX IMVI melanoma it was more than 56.1 µM.

`CN1CCN(Cc2ccc(Nc3ncc(Cl)c(Nc4ccccc4S(=O)(=O)N(C)C)n3)cc2)CC1`: the GI50 with 786-0 renal is 0.0524 µM; with OVCAR-8 ovarian it was 0.0738 µM; with A498 renal, 0.114 µM; in the test on NCI-H460 lung, less than 0.0131 µM; in the test on EKVX NSCLC, 0.0317 µM; with A549 NSCLC, 0.0365 µM. Also, the GI50 in the test on SK-MEL-28 melanoma was 0.0497 µM; in the test on SF-295 CNS it was 0.0169 µM; in the test on RPMI-8226 leukemia, 0.0103 µM; in the test with LOX IMVI melanoma it was less than 0.0143 µM. The TGI in the test on 786-0 renal is 1.28 µM; with A498 renal, 0.327 µM; in the test with NCI-H460 lung it was 0.198 µM; with EKVX NSCLC, 0.366 µM; in the test on A549 NSCLC it was 1.7 µM; with SK-MEL-28 melanoma, 0.415 µM. In addition, the TGI was more than 100 µM in the test with SF-295 CNS, 1.24 µM in the test on RPMI-8226 leukemia and 0.124 µM in the test on LOX IMVI melanoma.

On to `O=C(/C=C\Sc1nccc(C(F)(F)F)n1)c1ccc(Br)cc1`, for which the GI50 in the test with 786-0 renal is 16.3 µM; in the test on OVCAR-8 ovarian, 45.9 µM; in the test with A498 renal, more than 100 µM; in the test with NCI-H460 lung it was more than 100 µM; with EKVX NSCLC, 23.3 µM; in the test on A549 NSCLC, more than 100 µM. Also, the GI50 with SK-MEL-28 melanoma was 16 µM; with SF-295 CNS, more than 100 µM; with RPMI-8226 leukemia it was 2.24 µM; in the test on LOX IMVI melanoma, 13.7 µM. The TGI was 34.2 µM in the test on 786-0 renal; more than 100 µM in the test on OVCAR-8 ovarian; more than 100 µM in the test with A498 renal; more than 100 µM with NCI-H460 lung; 67.4 µM in the test with EKVX NSCLC; more than 100 µM in the test on A549 NSCLC. For the same compound, the TGI is 32.1 µM in the test on SK-MEL-28 melanoma, more than 100 µM in the test with SF-295 CNS, 4.63 µM with RPMI-8226 leukemia and 27.2 µM with LOX IMVI melanoma.

As to `Cc1ccc(NC(=O)c2ccnc(N3CCCC3)c2)cc1-c1ccc(C(=O)NCC2CC2)cc1`, the GI50 in the test on 786-0 renal, in the test with OVCAR-8 ovarian, in the test with A498 renal, in the test on NCI-H460 lung, with EKVX NSCLC and with A549 NSCLC was more than 25 µM in each case. Also, the GI50 in the test with SK-MEL-28 melanoma, in the test on SF-295 CNS, with RPMI-8226 leukemia and in the test with LOX IMVI melanoma was more than 25 µM throughout. The TGI in the test with 786-0 renal, in the test with OVCAR-8 ovarian, in the test with A498 renal, with NCI-H460 lung, with EKVX NSCLC and with A549 NSCLC was more than 25 µM each time. Also, the TGI with SK-MEL-28 melanoma, in the test with SF-295 CNS, with RPMI-8226 leukemia and in the test on LOX IMVI melanoma was more than 25 µM throughout.

Consider `C=CCN(N=O)C(=O)N(CCC)CCCCC(NC(C)=O)C(=O)NCc1ccccc1` (centres undefined), for which the TGI with 786-0 renal, in the test on OVCAR-8 ovarian, with A498 renal, with NCI-H460 lung, in the test on EKVX NSCLC and in the test with A549 NSCLC was more than 100 µM in each case. Besides, the TGI in the test with SK-MEL-28 melanoma, in the test with SF-295 CNS, in the test on RPMI-8226 leukemia and with LOX IMVI melanoma was more than 100 µM throughout.
